In US20080262097A1, “Formulations” (priority 2005, published 2008):
≈ marks a conversion by molar mass, not a printed value. Read-outs that look alike come from different tables or passages of the source.

How the values were obtained:
P. acnes PRP-046 = assay: Disc diffusion assay (DDA); type: cell-based, Propionibacterium acnes; settings: zone diameter, 200 μg per disc
Method: (§1) The Propionibacterium spp organisms were cultured and maintained on Wilkins-Chalgren Anaerobe Medium (agar and broth) at pH 6.0; cultures were incubated anaerobically at 37° C. for 72 hours.
(§2) A sterile paper disc was impregnated with a sample of the test compound and a minimum of 30 minutes allowed for the solvents to evaporate as far as possible. The disc was then placed on an agar plate onto which the test micro-organism had been inoculated. The plate was then incubated under the conditions described above, following which it was examined visually for signs of bacterial growth. If the test compound had antimicrobial activity, a circular zone of no growth would be obtained around the disc. The diameter of this zone of “inhibition” was measured using a ProtoCOL™ automated zone sizer (Synbiosis, Cambridge, UK). In general, a greater diameter and/or area of the zone of inhibition indicates a greater antimicrobial activity in the relevant test compound, although other factors such as test compound mobility through the agar gel may also influence the result.
(§3) The area of the zone of inhibition was calculated from the measured zone diameter (D) using the formula π(D/2)^2.

P. acnes PRP-102 = assay: Disc diffusion assay (DDA); type: cell-based, Propionibacterium acnes; settings: zone diameter, 200 μg per disc
Method: as §1, §2, §3

P. acnes PRP-004 = assay: Disc diffusion assay (DDA); type: cell-based, Propionibacterium acnes; settings: zone diameter, 200 μg per disc
Method: as §1, §2, §3

P. acnes PRP-002 = assay: Disc diffusion assay (DDA); type: cell-based, Propionibacterium acnes; settings: zone diameter, 200 μg per disc
Method: as §1, §2, §3

P. acnes PRP-101 = assay: Disc diffusion assay (DDA); type: cell-based, Propionibacterium acnes; settings: zone diameter, 200 μg per disc
Method: as §1, §2, §3

P. acnes PRP-008 = assay: Disc diffusion assay (DDA); type: cell-based, Propionibacterium acnes; settings: zone diameter, 200 μg per disc
Method: as §1, §2, §3

P. acnes PRP-068 = assay: Disc diffusion assay (DDA); type: cell-based, Propionibacterium acnes; settings: zone diameter, 200 μg per disc
Method: as §1, §2, §3

P. acnes PRP-059 = assay: Disc diffusion assay (DDA); type: cell-based, Propionibacterium acnes; settings: zone diameter, 200 μg per disc
Method: as §1, §2, §3

P. acnes PRP-003 = assay: Disc diffusion assay (DDA); type: cell-based, Propionibacterium acnes; settings: zone diameter, 200 μg per disc
Method: as §1, §2, §3

P. acnes PRP-023 = assay: Disc diffusion assay (DDA); type: cell-based, Propionibacterium acnes; settings: zone diameter, 200 μg per disc
Method: as §1, §2, §3

P. acnes PRP-007 = assay: Disc diffusion assay (DDA); type: cell-based, Propionibacterium acnes; settings: zone diameter, 200 μg per disc
Method: as §1, §2, §3

P. acnes PRP-017 = assay: Disc diffusion assay (DDA); type: cell-based, Propionibacterium acnes; settings: zone diameter, 200 μg per disc
Method: as §1, §2, §3

P. acnes PRP-026 = assay: Disc diffusion assay (DDA); type: cell-based, Propionibacterium acnes; settings: zone diameter, 200 μg per disc
Method: as §1, §2, §3

P. acnes PRP-053 [1] = assay: MBC assay; type: cell-based, Propionibacterium acnes; settings: Cutibacterium acnes, PRP053; P. acnes PRP-053 (resistance Tet/MLS)
Method: (§4) Other propionibacterial strains were also tested, as described in Example 8 below. These included certain antibiotic resistant propionibacteria, such as the two P. acnes strains PRP-010 and PRP-053 which are resistant respectively to macrolides-lincosamides-streptogramins-ketolides (MLSK) and to macrolides-lincosamides-streptogramins (MLS) and tetracycline—in other words, PRP-010 is resistant to erythromycin and clindamycin, and […] to erythromycin, clindamycin and tetracycline.
as §1
(§5) This assay, normally carried out after an MIC assay, determines the minimum concentration of a compound that is lethal to the micro-organism being tested.
(§6) These samples were then individually sub-cultured on non-selective agar medium, under the incubation conditions described above. Following incubation they were examined visually for bacterial growth.

P. acnes PRP-010 = assay: MBC assay; type: cell-based, Propionibacterium acnes; settings: Cutibacterium acnes, PRP010; P. acnes PRP-010 (resistance MLSK)
Method: as §4, §1, §5, §6

[2] = tested on: Staphylococcus xylosus ATCC 29971; assay: MBC assay; type: cell-based; settings: ATCC29971
Method: (§7) The staphylococci and enterococci were cultured and maintained on Mueller-Hinton Medium (agar and broth) at pH 7.2; they were incubated aerobically at 37° C. for 24 hours.
as §5, §6

[3] = tested on: Staphylococcus simulans ATCC 27848; assay: MBC assay; type: cell-based; settings: ATCC27848
Method: as §7, §5, §6

S. aureus ATCC 12607 = assay: MBC assay; type: cell-based; settings: Staphylococcus aureus, ATCC12607
Method: as §7, §5, §6

[4] = tested on: Staphylococcus warneri ATCC 27836; assay: MBC assay; type: cell-based; settings: ATCC27836
Method: as §7, §5, §6

S. aureus CPHL VISA Mu3 = assay: MBC assay; type: cell-based; settings: Staphylococcus aureus
Method: as §7, §5, §6

E faecalis ATCC 29212 = assay: Disc diffusion assay (DDA); type: cell-based, Enterococcus faecalis; settings: zone diameter, 200 μg per disc
Description: 3. Enterococcus faecalis ATCC 29212—this is a Gram-positive bacterium belonging to the genus Enterococcus. Enterococci have similar properties to streptococci, but differ in their ability to grow on bile-salt containing media such as MacConkey's Agar. Their principal habitat is the mammalian gastrointestinal tract. They cause a number of important infections including endocarditis, urinary tract infections and abscesses. In the context of skin, they are frequently isolated from wound infections. Unlike the streptococci, the enterococci have developed widespread resistance to penicillin. More recently, E. faecalis and E. faecium strains have also developed resistance to the glycopeptide antibiotics such as vancomycin. Vancomycin-Resistant Enterococci (VRE), principally vanA strains of E. faecium, now represent a serious healthcare-acquired infection hazard in the USA, Japan and Western Europe. […]
A sterile paper disc was impregnated with a sample of the test compound and a minimum of 30 minutes allowed for the solvents to evaporate as far as possible. […] The diameter of this zone of “inhibition” was measured using a ProtoCOL™ automated zone sizer (Synbiosis, Cambridge, UK). […]
The area of the zone of inhibition was calculated from the measured zone diameter (D) using the formula π(D/2)^2. […]

P. acnes PRP-053 [5] = assay: MIC assay; type: cell-based, Propionibacterium acnes; settings: Cutibacterium acnes, PRP053; P. acnes PRP-053 (resistance Tet/MLS)
Method: as §4, §1
This is a standard international method for quantitatively assessing the antimicrobial activity of a compound in a liquid medium. The method used a 96-well microtitre plate, capable of holding about 200 μl of liquid per well. […] The culture media were as described above for the relevant test organisms.
The wells were inoculated with a liquid suspension of freshly grown micro-organism and incubated under the conditions described above. After incubation, the microtitre plate was examined visually (with the aid of a light box) for cell pellets in and/or opaque wells, which would indicate microbial growth. The MIC value was recorded as the lowest concentration of test compound required to inhibit microbial growth, ie, the lowest concentration for which the liquid in the well remained clear.
The assays were conducted in duplicate and included both negative (culture medium only) and positive (culture medium, diluting solvent and inoculum) controls.

Row | Compound | DDA (P. acnes PRP-046) | DDA (P. acnes PRP-102) | DDA (P. acnes PRP-004) | DDA (P. acnes PRP-002) | DDA (P. acnes PRP-101) | DDA (P. acnes PRP-008) | DDA (P. acnes PRP-068) | DDA (P. acnes PRP-059) | DDA (P. acnes PRP-003) | DDA (P. acnes PRP-023) | DDA (P. acnes PRP-007) | DDA (P. acnes PRP-017) | DDA (P. acnes PRP-026) | MBC (P. acnes PRP-053 [1]) | MBC (P. acnes PRP-010) | MBC (S. aureus ATCC 12607) | MBC (S. aureus CPHL VISA Mu3) | DDA (E faecalis ATCC 29212) | MIC (P. acnes PRP-053 [5]) | further results
1 | O=C(OOC(=O)c1ccccc1)c1ccccc1 [benzoyl peroxide] | 24.36 (±0.36) mm | 29.62 (±1.12) mm | 31.17 (±1.02) mm | 25.69 (±0.66) mm | 25.73 (±1.99) mm | 27.80 (±1.29) mm | 28.79 (±0.95) mm | 23.49 (±0.48) mm | 25.69 (±0.66) mm | 24.11 (±0.65) mm | 23.88 (±1.42) mm | 23.28 (±0.48) mm | 26.52 (±0.65) mm | 62.5 µg/mL (≈ 258 µM) | 31.2 µg/mL (≈ 129 µM) | 250 µg/mL (≈ 1030 µM) | 125 to 250 µg/mL (≈ 516 to 1030 µM) | 0.0 mm | 31.2 µg/mL (≈ 129 µM) | MBC ([2]; Staphylococcus xylosus ATCC 29971, read-out: MBC): 250 µg/mL (≈ 1030 µM); MBC ([3]; Staphylococcus simulans ATCC 27848, read-out: MBC): > 250 µg/mL; MBC ([4]; Staphylococcus warneri ATCC 27836, read-out: MBC): > 250 µg/mL
2 | CC(C)(C)c1cc(O)ccc1O [TBHQ, t-butyl hydroquinone] | 17.46 (±1.58) mm | 23.80 (±0.10) mm | 30.32 (±1.97) mm | 28.42 (±0.95) mm | 0.0 (±0.00) mm | 14.47 (±0.90) mm | 20.89 (±1.08) mm | 17.56 (±0.72) mm | 38.01 (±1.02) mm | 23.90 (±0.00) mm | 13.43 (±2.49) mm | 18.40 (±1.08) mm | 8.18 (±0.72) mm | 7.8 µg/mL (≈ 46.9 µM) | 15.6 µg/mL (≈ 93.9 µM) | 3.9 µg/mL (≈ 23.5 µM) | 7.8 µg/mL (≈ 46.9 µM) | 33.67 mm | 3.9 µg/mL (≈ 23.5 µM) | MBC ([2]; Staphylococcus xylosus): 15.6 µg/mL (≈ 94 µM); MBC ([3]; Staphylococcus simulans): 31.2 µg/mL (≈ 188 µM); MBC ([4]; Staphylococcus warneri): 7.8 µg/mL (≈ 46.9 µM)
